Measured values taken from ChEMBL document CHEMBL3046649, “Fungitoxic and Phytotoxic Activities of Cinnamic Acid Esters and Amides” (2000).

What was measured:
[1] = tested on: Pythium; experiment: Fungitoxic activity against Pythium sp. assessed as mycelial growth inhibition at 10 ppm after 4 to 5 days by agar dilution method; settings: read-out: GI
[2] = tested on: Athelia rolfsii; experiment: microbe, parasite or virus in culture; type: functional; settings: Agroathelia rolfsii, read-out: GI
Description: Fungitoxic activity against Athelia rolfsii assessed as mycelial growth inhibition at 100 ppm after 4 to 5 days by agar dilution method

[3] = tested on: Athelia rolfsii; experiment: Fungitoxic activity against Athelia rolfsii assessed as mycelial growth inhibition at 10 ppm after 4 to 5 days by agar dilution method; type: functional; settings: Agroathelia rolfsii; read-out: GI
[4] = tested on: Pythium; experiment: microbe, parasite or virus in culture; type: functional; settings: read-out: GI
Description: Fungitoxic activity against Pythium sp. assessed as mycelial growth inhibition at 100 ppm after 4 to 5 days by agar dilution method

[5] = tested on: Brassica rapa subsp. chinensis; experiment: whole plant or invertebrate; type: functional; settings: 72 h, read-out: GI
Description: Phytotoxicity against Brassica rapa subsp. chinensis assessed as growth inhibition of radicle at 100 ppm treated to seeds after 3 days

[6] = tested on: Brassica rapa subsp. chinensis; experiment: whole plant or invertebrate; type: functional; settings: 72 h, read-out: GI; remark: listed apart in the source
Description: Phytotoxicity against Brassica rapa subsp. chinensis assessed as growth inhibition of hypocotyl at 100 ppm treated to seeds after 3 days

Compound	inhibition of growth at 10 ppm [1]	inhibition of growth at 100 ppm [2]	inhibition of growth at 10 ppm [3]	inhibition of growth at 100 ppm [4]	inhibition of growth at 100 ppm [5]	inhibition of growth at 100 ppm [6]
CCCNC(=O)/C=C/c1ccc(C(C)C)cc1	41%	88%	28%	84%	52%	30%
Cc1cccc(C)c1NC(=O)/C=C/c1ccccc1		13%		31%	0%	0%
CCc1ccccc1NC(=O)/C=C/c1ccccc1		19%		26%	21%	0%
Cc1ccc(NC(=O)/C=C/c2ccccc2)c(C)c1		5%		4%	0%	0%
Cc1cccc(NC(=O)/C=C/c2ccccc2)c1C		12%		16%	56%	32%
O=C(/C=C/c1ccc(Cl)cc1Cl)OCCOc1ccccc1	14%	72%	14%	59%	8%	33%
CC(C)=CCC/C(C)=C/COC(=O)/C=C/c1ccc(Cl)cc1Cl		30%		24%	1%	26%
CCCCCNC(=O)/C=C/c1ccccc1	23%	87%	18%	78%	76%	60%
CCCCCCCCCCNC(=O)/C=C/c1ccccc1		23%		27%	15%	10%
CCc1cccc(NC(=O)/C=C/c2ccccc2)c1	31%	53%	35%	74%	66%	2%
CCc1ccc(NC(=O)/C=C/c2ccccc2)cc1		53%		34%	20%	10%
CC(C)=CCC/C(C)=C/COC(=O)/C=C/c1ccc(C(C)C)cc1	8%	88%	21%	72%	0%	30%
Cc1ccc(OC(=O)/C=C/c2ccc(Cl)cc2)c(C(C)C)c1		41%		13%	18%	41%
Cc1ccc(C(C)C)c(OC(=O)/C=C/c2ccc(Cl)cc2)c1		39%		6%	24%	36%
O=C(/C=C/c1ccc(Cl)cc1)OCCOc1ccccc1	9%	83%	16%	54%	0%	30%
CC(C)=CCC/C(C)=C/COC(=O)/C=C/c1ccc(Cl)cc1	9%	94%	17%	86%	48%	41%
Cc1ccc(OC(=O)/C=C/c2ccc(Cl)cc2Cl)c(C(C)C)c1		67%	21%	15%	0%	32%
Cc1ccc(C(C)C)c(OC(=O)/C=C/c2ccc(Cl)cc2Cl)c1		33%		29%	0%	33%
Cc1ccc(OC(=O)/C=C/c2ccc(C(C)C)cc2)c(C(C)C)c1		24%		15%	28%	39%
Cc1ccc(C(C)C)c(OC(=O)/C=C/c2ccc(C(C)C)cc2)c1		0%		2%	30%	42%
C=CCNC(=O)/C=C/c1ccccc1	20%	90%	6%	52%	64%	63%

Compound	inhibition of growth at 10 ppm [1]	inhibition of growth at 100 ppm [2]	inhibition of growth at 10 ppm [3]	inhibition of growth at 100 ppm [4]	inhibition of growth at 100 ppm [5]	inhibition of growth at 100 ppm [6]
CC(C)=CCCC(C)CCOC(=O)/C=C/c1ccc(Cl)cc1Cl (centres undefined) [3,7-DIMETHYLOCT-6-ENYL 3-(2,4-DICHLOROPHENYL)ACRYLATE]		15%		0%	0%	25%
CC(C)CNC(=O)/C=C/c1ccc(Cl)cc1Cl [3-(2,4-DICHLOROPHENYL)-N-ISOBUTYLACRYLAMIDE]		38%		31%	43%	7%
CC(C)NC(=O)/C=C/c1ccc(Cl)cc1Cl [3-(2,4-DICHLOROPHENYL)-N-ISOPROPYLACRYLAMIDE]		31%		28%	30%	11%
CCCNC(=O)/C=C/c1ccc(Cl)cc1Cl [3-(2,4-DICHLOROPHENYL)-N-PROPYLACRYLAMIDE]		43%		29%	26%	18%
CCCCOC(=O)/C=C/c1ccccc1 [BUTYL CINNAMATE]		42%		17%	0%	5%
CC(C)OP(=O)(OC(C)C)SCc1ccccc1 [IPROBENFOS]	42%	100%	69%	89%		
CC(C)COC(=O)/C=C/c1ccccc1 [ISOBUTYL CINNAMATE]		42%		57%	0%	40%
O=C(/C=C/c1ccccc1)NCc1ccc(Cl)cc1Cl [N-(2,4-DICHLOROBENZYL)CINNAMAMIDE]		51%		41%	43%	0%
O=C(/C=C/c1ccccc1)NCc1ccccc1Cl [N-(2-CHLOROBENZYL)CINNAMAMIDE]		41%		23%	88%	70%
O=C(/C=C/c1ccccc1)NCc1ccc(Cl)cc1 [N-(4-CHLOROBENZYL)CINNAMAMIDE]		27%		33%	44%	6%
CCCCNC(=O)/C=C/c1ccc(Cl)cc1Cl [N-BUTYL-3-(2,4-DICHLOROPHENYL)ACRYLAMIDE]		16%		9%	49%	17%
CCCCCCCCCCCCNC(=O)/C=C/c1ccccc1 [N-DODECYLCINNAMAMIDE]		13%		21%	32%	48%
CCCCCCCCCCCCCCCCNC(=O)/C=C/c1ccccc1 [N-HEXADECYLCINNAMAMIDE]		0%		12%	75%	20%
Cc1ccccc1NC(=O)/C=C/c1ccccc1 [N-O-TOLYLCINNAMAMIDE]	18%	49%		52%	39%	9%
CCCCCCCCNC(=O)/C=C/c1ccccc1 [N-OCTYLCINNAMAMIDE]		46%		24%	42%	34%
Cc1ccc(NC(=O)/C=C/c2ccccc2)cc1 [N-P-TOLYLCINNAMAMIDE]	35%	47%		59%	57%	24%
CCC(C)NC(=O)/C=C/c1ccc(Cl)cc1Cl (centres undefined) [N-SEC-BUTYL-3-(2,4-DICHLOROPHENYL)ACRYLAMIDE]		31%		23%	41%	21%
CC(C)(C)NC(=O)/C=C/c1ccc(Cl)cc1Cl [N-TERT-BUTYL-3-(2,4-DICHLOROPHENYL)ACRYLAMIDE]		21%		22%	26%	11%
CC(C)(C)NC(=O)/C=C/c1ccc(Cl)cc1 [N-TERT-BUTYL-3-(4-CHLOROPHENYL)ACRYLAMIDE]		71%	60%	21%	55%	29%
CC(C)c1ccc(/C=C/C(=O)NC(C)(C)C)cc1 [N-TERT-BUTYL-3-(4-ISOPROPYLPHENYL)ACRYLAMIDE]	45%	31%		62%	43%	7%
CCCOC/C(=N\c1ccc(Cl)cc1C(F)(F)F)n1ccnc1 [TRIFLUMIZOLE]	71%	100%	64%	94%		
